These results are taken from article PMC3204160 (Journal of natural products, 2011).

pIC50: −log10 of the molar value. Where two headings read alike, the source gives them in different places.

The target of one test is recombinant human HDAC2 (Homo sapiens, UniProt Q92769). As to the kind of experiment: Two-step fluorogenic HDAC inhibition assay, HDAC2. Type of test: biochemical. The conditions noted are these: for times less active against HDAC2 than against HDAC3/N-CoR2: natural/oxidized prodrug form, range given for HDAC1 and HDAC2 together.
The target of a further test is T1, recombinant human HDAC6 (Homo sapiens, UniProt Q9UBN7).
T1 sequence (Q9UBN7 1-1215): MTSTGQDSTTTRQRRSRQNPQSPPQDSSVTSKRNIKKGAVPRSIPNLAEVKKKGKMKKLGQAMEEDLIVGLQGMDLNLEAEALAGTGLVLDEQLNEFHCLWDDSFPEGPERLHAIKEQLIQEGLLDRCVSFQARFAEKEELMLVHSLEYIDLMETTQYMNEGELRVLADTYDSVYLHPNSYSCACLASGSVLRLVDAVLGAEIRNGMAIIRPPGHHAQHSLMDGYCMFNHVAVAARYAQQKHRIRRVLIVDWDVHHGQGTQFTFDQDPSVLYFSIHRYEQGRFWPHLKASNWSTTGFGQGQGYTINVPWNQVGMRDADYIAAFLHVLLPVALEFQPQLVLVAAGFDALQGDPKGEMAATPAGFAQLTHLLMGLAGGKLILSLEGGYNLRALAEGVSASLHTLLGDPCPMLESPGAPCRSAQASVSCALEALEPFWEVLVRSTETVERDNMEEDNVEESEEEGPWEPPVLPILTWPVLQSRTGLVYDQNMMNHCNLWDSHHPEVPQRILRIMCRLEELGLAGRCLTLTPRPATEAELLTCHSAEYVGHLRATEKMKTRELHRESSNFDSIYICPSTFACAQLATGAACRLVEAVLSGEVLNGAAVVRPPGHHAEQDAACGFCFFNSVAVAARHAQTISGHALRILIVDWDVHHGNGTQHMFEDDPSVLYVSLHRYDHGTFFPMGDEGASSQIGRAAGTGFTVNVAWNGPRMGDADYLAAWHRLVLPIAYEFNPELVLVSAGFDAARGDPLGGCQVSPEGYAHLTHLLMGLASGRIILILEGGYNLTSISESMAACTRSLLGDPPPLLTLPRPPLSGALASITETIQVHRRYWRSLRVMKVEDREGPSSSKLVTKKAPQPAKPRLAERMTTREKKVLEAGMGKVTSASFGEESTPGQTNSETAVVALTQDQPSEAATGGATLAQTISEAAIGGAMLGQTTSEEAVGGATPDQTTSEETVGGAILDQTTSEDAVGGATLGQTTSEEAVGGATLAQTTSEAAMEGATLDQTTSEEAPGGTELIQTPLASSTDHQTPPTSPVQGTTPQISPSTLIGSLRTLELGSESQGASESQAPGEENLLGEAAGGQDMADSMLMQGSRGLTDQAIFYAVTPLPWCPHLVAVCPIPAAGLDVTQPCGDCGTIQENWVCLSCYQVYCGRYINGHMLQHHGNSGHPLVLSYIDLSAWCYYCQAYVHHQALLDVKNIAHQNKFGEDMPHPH
Kind of test: biochemical. Type of test: biochemical. The conditions noted are these: for potency towards HDAC6, times less than to HDAC1–3: reduced form.

For test [1], the system named is NCI-60 human cancer cell lines. Kind of test: NCI-60 anticancer drug screen and COMPARE analysis. To be noted: for over 90% of the tested NCI-60 cell lines; five concentrations 10^−4 to 10^−8 M. Type of test: cell-based.
A further test concerns the target T2, recombinant human HDAC8 (Homo sapiens, UniProt Q9BY41).
T2 sequence (Q9BY41 1-377): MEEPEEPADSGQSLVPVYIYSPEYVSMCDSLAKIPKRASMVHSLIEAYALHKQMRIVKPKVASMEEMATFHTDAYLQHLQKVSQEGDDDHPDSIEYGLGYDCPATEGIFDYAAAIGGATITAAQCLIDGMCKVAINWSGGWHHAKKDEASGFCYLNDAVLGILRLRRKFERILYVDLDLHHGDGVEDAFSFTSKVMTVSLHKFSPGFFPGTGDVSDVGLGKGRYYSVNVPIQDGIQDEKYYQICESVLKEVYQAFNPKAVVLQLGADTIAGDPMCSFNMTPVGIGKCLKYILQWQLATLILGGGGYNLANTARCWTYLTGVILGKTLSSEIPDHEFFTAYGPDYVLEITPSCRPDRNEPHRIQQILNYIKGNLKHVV
Kind of test: biochemical. Type of test: biochemical.

In another test the target is recombinant human HDAC1 (Homo sapiens, UniProt Q13547). As to the kind of experiment: Two-step fluorogenic HDAC inhibition assay, HDAC1. The conditions noted are these: for times less active against HDAC1 than against HDAC3/N-CoR2: natural/oxidized prodrug form, range given for HDAC1 and HDAC2 together. Type of test: biochemical.
A further test concerns the target recombinant human HDAC4 (Homo sapiens, UniProt P56524). Kind of test: biochemical. Type of test: biochemical.
For another test, the target named is T3, recombinant human HDAC7 (Homo sapiens, UniProt Q8WUI4).
T3 sequence (Q8WUI4 1-952): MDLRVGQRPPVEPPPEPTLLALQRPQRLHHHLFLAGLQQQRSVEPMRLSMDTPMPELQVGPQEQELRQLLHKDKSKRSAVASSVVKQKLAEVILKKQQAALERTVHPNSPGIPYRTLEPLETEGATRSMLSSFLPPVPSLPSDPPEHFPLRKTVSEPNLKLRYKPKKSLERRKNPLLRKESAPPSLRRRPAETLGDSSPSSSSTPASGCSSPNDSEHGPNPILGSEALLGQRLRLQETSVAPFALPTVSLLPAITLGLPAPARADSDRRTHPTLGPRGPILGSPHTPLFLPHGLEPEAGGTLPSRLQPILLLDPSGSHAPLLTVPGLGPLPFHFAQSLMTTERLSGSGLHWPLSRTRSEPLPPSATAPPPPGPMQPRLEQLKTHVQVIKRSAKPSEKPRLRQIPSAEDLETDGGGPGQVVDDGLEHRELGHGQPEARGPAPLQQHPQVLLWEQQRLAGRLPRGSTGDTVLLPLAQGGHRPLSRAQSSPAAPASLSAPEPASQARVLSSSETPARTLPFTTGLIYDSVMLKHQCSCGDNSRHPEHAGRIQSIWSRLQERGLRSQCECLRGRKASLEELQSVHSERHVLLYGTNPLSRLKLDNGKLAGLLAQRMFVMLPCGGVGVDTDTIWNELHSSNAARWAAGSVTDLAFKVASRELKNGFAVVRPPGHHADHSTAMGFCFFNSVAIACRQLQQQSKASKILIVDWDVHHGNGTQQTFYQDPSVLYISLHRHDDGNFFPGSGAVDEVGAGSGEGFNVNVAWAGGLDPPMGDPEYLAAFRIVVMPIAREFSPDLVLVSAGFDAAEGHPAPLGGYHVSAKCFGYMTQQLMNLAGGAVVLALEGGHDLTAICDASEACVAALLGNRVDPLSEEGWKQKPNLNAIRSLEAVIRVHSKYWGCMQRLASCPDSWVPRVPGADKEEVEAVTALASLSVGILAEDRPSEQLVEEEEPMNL
Kind of test: biochemical.

Test [2] has as its target HDAC3 (in complex with N-CoR2) (Homo sapiens, UniProt O15379). As to the kind of experiment: biochemical.
A further test addresses recombinant human HDAC9 (Homo sapiens, UniProt Q9UKV0). As to the kind of experiment: biochemical.

recombinant human HDAC2, sequence (Q92769 whole entry): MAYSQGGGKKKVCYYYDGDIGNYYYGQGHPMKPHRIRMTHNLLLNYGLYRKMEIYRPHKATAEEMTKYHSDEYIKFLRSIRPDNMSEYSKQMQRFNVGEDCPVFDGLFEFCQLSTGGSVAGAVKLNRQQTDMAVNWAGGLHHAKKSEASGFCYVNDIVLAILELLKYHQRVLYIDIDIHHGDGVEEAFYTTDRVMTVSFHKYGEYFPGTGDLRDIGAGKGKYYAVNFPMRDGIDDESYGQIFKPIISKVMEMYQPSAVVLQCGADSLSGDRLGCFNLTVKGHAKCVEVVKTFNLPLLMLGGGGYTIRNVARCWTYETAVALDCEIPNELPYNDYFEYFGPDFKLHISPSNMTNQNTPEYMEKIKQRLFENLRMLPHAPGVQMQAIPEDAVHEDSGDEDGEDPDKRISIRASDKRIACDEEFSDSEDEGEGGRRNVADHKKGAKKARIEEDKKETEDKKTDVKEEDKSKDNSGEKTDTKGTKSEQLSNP
recombinant human HDAC4, sequence (P56524 whole entry): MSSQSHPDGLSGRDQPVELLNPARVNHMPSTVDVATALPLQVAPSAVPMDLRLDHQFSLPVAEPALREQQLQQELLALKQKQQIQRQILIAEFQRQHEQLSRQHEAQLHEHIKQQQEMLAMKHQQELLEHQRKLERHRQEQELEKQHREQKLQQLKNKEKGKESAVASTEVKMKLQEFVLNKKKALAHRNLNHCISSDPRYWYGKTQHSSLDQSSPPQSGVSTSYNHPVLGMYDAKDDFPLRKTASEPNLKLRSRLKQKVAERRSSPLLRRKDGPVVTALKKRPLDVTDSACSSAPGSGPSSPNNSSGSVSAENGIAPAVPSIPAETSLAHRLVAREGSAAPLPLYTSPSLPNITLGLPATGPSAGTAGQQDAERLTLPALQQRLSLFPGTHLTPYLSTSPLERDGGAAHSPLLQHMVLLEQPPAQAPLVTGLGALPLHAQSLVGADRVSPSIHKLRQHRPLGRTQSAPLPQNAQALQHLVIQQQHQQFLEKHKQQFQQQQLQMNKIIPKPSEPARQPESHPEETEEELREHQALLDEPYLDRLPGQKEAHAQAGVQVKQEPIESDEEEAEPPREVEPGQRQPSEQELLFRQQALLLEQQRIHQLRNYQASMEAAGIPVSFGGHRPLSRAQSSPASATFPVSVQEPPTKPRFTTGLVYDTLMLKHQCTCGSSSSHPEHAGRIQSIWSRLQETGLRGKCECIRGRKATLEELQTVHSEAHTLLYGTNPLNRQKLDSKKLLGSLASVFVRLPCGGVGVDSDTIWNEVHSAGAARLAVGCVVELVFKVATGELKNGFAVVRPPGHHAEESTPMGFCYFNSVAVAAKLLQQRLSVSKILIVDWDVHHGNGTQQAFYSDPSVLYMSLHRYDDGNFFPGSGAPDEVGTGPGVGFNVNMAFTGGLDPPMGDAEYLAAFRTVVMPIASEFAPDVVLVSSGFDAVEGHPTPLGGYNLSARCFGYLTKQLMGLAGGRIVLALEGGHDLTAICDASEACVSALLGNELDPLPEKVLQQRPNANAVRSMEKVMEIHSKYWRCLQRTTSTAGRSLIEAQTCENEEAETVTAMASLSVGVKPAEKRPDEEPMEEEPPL
recombinant human HDAC1, sequence (Q13547 whole entry): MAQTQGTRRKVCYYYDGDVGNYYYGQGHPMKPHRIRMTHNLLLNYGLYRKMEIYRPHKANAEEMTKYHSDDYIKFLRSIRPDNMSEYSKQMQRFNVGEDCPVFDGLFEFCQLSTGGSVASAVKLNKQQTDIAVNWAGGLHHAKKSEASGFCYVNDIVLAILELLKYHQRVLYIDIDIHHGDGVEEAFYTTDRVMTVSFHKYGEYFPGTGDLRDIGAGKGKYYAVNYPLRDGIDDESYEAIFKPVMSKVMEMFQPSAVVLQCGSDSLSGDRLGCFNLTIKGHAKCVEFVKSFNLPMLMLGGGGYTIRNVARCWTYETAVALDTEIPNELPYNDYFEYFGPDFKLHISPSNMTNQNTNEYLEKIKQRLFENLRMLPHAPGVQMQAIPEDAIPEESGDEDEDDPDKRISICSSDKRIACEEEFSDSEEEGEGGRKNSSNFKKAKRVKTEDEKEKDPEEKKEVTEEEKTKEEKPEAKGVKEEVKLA
recombinant human HDAC9, sequence (Q9UKV0 whole entry): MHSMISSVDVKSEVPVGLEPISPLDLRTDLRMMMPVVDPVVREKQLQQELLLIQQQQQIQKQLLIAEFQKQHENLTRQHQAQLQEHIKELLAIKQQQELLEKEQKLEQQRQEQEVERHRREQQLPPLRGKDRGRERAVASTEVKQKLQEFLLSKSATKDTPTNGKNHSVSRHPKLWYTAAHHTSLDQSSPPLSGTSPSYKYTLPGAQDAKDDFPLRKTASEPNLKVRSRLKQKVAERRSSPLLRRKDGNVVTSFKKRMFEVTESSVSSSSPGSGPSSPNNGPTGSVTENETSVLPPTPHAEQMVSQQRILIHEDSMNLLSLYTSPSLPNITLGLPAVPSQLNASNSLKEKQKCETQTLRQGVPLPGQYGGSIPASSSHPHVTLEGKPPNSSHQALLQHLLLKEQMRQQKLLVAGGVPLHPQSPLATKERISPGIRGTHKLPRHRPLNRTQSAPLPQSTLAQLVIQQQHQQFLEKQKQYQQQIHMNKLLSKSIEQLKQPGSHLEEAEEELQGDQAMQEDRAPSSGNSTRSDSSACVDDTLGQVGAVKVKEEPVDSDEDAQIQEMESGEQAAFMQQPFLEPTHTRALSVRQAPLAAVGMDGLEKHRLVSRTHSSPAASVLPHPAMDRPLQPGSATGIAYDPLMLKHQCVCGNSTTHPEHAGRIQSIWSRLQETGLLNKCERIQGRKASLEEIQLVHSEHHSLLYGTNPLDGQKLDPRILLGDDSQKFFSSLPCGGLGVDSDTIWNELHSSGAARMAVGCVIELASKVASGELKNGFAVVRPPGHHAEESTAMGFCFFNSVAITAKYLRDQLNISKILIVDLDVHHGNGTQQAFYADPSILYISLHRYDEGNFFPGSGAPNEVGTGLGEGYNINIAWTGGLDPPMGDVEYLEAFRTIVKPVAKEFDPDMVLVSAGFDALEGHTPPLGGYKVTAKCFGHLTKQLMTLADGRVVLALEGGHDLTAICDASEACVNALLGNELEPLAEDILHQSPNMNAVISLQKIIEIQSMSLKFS
HDAC3 (in complex with N-CoR2), sequence (O15379 whole entry): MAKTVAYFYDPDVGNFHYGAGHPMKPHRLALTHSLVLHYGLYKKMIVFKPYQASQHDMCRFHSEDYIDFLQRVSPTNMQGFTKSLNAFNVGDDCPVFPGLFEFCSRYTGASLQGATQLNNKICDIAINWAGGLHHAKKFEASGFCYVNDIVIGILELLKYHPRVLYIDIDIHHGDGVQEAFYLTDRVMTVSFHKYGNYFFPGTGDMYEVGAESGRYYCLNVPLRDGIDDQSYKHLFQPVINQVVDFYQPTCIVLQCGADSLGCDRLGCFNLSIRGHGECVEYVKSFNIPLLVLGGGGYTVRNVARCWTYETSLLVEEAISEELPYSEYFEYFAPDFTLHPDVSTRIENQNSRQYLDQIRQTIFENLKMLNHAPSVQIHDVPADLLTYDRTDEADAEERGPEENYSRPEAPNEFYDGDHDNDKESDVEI
HDAC3 (in complex with N-CoR2), sequence (Q9Y618 395-489 partner limits assumed): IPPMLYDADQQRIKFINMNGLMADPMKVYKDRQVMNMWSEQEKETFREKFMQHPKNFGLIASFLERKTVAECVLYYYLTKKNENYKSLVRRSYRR

With `CCCC[C@H]1NC(=O)C[C@H]2/C=C/CCSSC[C@@H](NC1=O)C(=O)N[C@H]([C@@H](C)CC)[C@@H](O)CC(=O)O2` [Compound 7, thailandepsin B], at recombinant human HDAC2, the “times less active against HDAC2 than against HDAC3/N-CoR2” value (shortened to “times less active against HDAC2 than”) is reported as 80–450 times. Further, on recombinant human HDAC6, the “potency towards HDAC6, times less than to HDAC1–3” value (“potency towards HDAC6” below) was 30–100 times. For the same molecule, the “GI50 (growth inhibition)” value in test [1] is “low nanomolar concentrations”. Besides, the “inhibition of HDAC8, times weaker than the inhibition of HDAC1–3” value on recombinant human HDAC8 (reduced form) is listed as 80–350 times. Moreover, the “times less active against HDAC1 than against HDAC3/N-CoR2” value (“times less active against HDAC1 than” for short) at recombinant human HDAC1 was 80–450 times.
Take `C/C=C1\NC(=O)[C@H]2CSSCC/C=C/[C@H](CC(=O)N[C@H](C(C)C)C(=O)N2)OC(=O)[C@H](C(C)C)NC1=O` [Compound 2, FK228, reference compound]: the pIC50 at recombinant human HDAC4 is 6.33; on recombinant human HDAC7, 5.49; on recombinant human HDAC1, 8.28. Moreover, the “times less active against HDAC2 than” value on recombinant human HDAC2 is given as 80–450 times. At recombinant human HDAC6, the “potency towards HDAC6” value was 30–100 times. For the same molecule, the “times less active against HDAC1 than” value at recombinant human HDAC1 was 80–450 times.
Regarding `CC[C@H](C)[C@H]1NC(=O)[C@H]2CSSCC/C=C/[C@H](CC(=O)N[C@H](CCSC)C(=O)N2)OC(=O)C[C@@H]1O` [Compound 6, thailandepsin A], the pIC50 on recombinant human HDAC4 is 4.38; at recombinant human HDAC2, 8.46; on recombinant human HDAC6, 6.42; on recombinant human HDAC8 it was 5.92; on recombinant human HDAC7, 4.96; on recombinant human HDAC1, 7.85. For the same molecule, the figures for the pIC50 (in [2]; at recombinant human HDAC9) were 8.32 and 4.92, respectively. Further, the “fold less potent against HDAC4 than 2*” value at recombinant human HDAC4 is 40–90 fold. Further, at recombinant human HDAC2, the “times less active against HDAC2 than” value is recorded as 80–450 times. Further, the “potency towards HDAC6” value at recombinant human HDAC6 is reported as 30–100 times. In addition, the “GI50 (growth inhibition)” value in test [1] is given as “low nanomolar concentrations”. For the same molecule, the “fold less potent against HDAC8 than 2*” value on recombinant human HDAC8 is given as 40–90 fold. Further, the “inhibition of HDAC8, times weaker than the inhibition of HDAC1–3” value at recombinant human HDAC8 is listed as 80–350 times. For the same molecule, the “times less active against HDAC1 than” value at recombinant human HDAC1 was 80–450 times.
